Assay results as given in patent US20210186972A1, “FORMULATIONS AND METHODS FOR THE PREVENTION AND TREATMENT OF TUMOR METASTASIS AND TUMORIGENESIS” (THE UNITED STATES OF AMERICA, AS REPRESENTED BY THE …, priority 2018, published 2021).

Experiments:
PANC1, PC3M, and HeLa = assay: DNA damage response, cell cycle and apoptosis; type: cell-based
Method: Genotoxic agents that intercalate into or alkylate DNA, such as actinomycin D, induce similar nucleolar segregation to that observed with metarrestin treatment. To determine whether metarrestin induces nucleolar changes through genotoxic effects or general cytotoxicity, the impact of metarrestin on DNA damage repair, cell cycle, and general Pol II transcription status in three cell lines, PANC1, PC3M, and HeLa, was evaluated. […]

Pol II transcription = Pol II transcription status: CUGBP and SC35 immunolabeling; type: cell-based
Excerpt: To further determine whether metarrestin interferes with Pol II transcription in general, CUGBP was immunolabeled. The steady state nuclear distribution of CUGBP, a multifunctional hnRNP protein highly enriched in the PNC, is dependent upon Pol II transcription.

eEF1A = assay: Cellular thermal shift assay (CETSA); type: binding; settings: PC3M cell lysate
Excerpt: DMSO is the top panel and metarrestin is the bottom panel.

in vivo = assay: in vivo; set-up: species or system BALB/c mice; settings: mouse
Method: Metarrestin was administered to female BALB/c mice, n=3 in the single dose and the repeat doses were administered to SCID-beige mice, n=3 per time point. The repeat dose study mice were given daily intraperitoneal injections for 4 weeks, with concentration measured 24 h after the last dose. Metarrestin was formulated in 5% NMP+20% PEG400+75% (10% […] in water).
BALB/c mice, 17-19 g, female, n=66, were purchased and had free access to food and water. They were dosed with metarrestin at 5 or 25 mg/kg (10 ml/kg) in 5% NMP [NMP (Sigma-Aldrich cat #270458), 20% PEG400 (Sigma-Aldrich cat #202398), and 75% 10% HPBCD (Sigma-Aldrich cat #H107)] via lower left abdominal quadrant injection (n=33 each dose). The animals were anesthetized with isoflurane and restrained manually at the designated time points. Approximately 120 μL of blood were taken from the animals into K2EDTA tubes via retro-orbital puncture. Blood samples were placed on ice and centrifuged (2,000 g, 5 min under 4° C.) to obtain plasma samples within 15 minutes. An aliquot of 20 μL plasma sample was protein-precipitated with 200 μL acetonitrile that contained 50 ng/mL IS (dexamethasone). […] Twenty-four hours after the final dose, the concentrations of metarrestin in plasma were analyzed.

NSG PANC1 mice = assay: Survival in NSG PANC1 pancreatic cancer metastasis model, drug-infused chow; type: in vivo
Excerpt: FIG. 13 is a graph showing the survival rate of mice following metarrestin or vehicle treatment. This graph illustrates that metarrestin treatment extends survival in the NSG PANC1 pancreatic cancer metastasis model. […] The survival rate in the y-axis and the number of days after treatment is on the x-axis. Metarrestin treatment is the solid grey line at 100% survival and the descending black line is the vehicle (*** p<0.001).
FIG. 14 is a graph showing the survival rate of mice following metarrestin or vehicle treatment. This graph illustrates that metarrestin treatment extends survival in the NSG PANC1 pancreatic cancer metastasis model. Metarrestin treatment was provided through drug-infused chow (70 ppm designed to administer 10 mg/kg daily) after mice developed macrometastasis, including visible liver surface deposits. Metarrestin treatment extended the survival time of the mice compared to vehicle treated (NIH 31 Haslan diet). The survival rate in the y-axis and the number of days after treatment is on the x-axis. Metarrestin treatment is the solid grey line and the black line is the vehicle ([…]).
To evaluate whether metarrestin treatment can provide a survival advantage by preventing metastatic progression, the above experiment was repeated, but mice were followed until death or when animals reached study endpoint. NSG mice were injected with 60,000 3D PANC1 cells (details of assay below), and daily treatment with metarrestin-infused chow (10 mg/kg; 70 ppm, micronized particles added to NIH 31 Haslan rodent diet) began 6 weeks after tumor cell implantation, when metastasis was limited to micrometastasis by histopathological examination (FIG. 63). Animals in the control group receiving regular chow started to die 25 days after the start of treatment, whereas the metarrestin treatment group had no mortality more than 90 days after the start of treatment (FIG. 13). […]
Pancreatic cancer model: 60,000 luciferase-tagged PANC1 spheres were injected into the pancreas of Nod/IL2gamma (null) mice (obtained from NCI Mouse Repository, Frederick, Md.; on ACUC-approved animal protocol SB-211-2). […] Organs were then individually dissected, subjected to quantitative xenogene imaging, and fixed with 4% non-buffered formaldehyde. Impact of metastatic burden was calculated and graphed as liver and lung/primary tumor ratios based on a five-minute photon count for the liver normalized to liver weight (g), which was then compared to the average photon count per weight (g) of the primary pancreatic tumor of the same animal. […] Liver metastasis/mm^2 was calculated as the sum of the […] of the individual metastases. Tumor volume (mm^3) was calculated as (L×W2), where L=length (mm) and W=width (mm). Animal survival was measured from the first day of treatment until death. […]

[1] = infused chow 10 mg/kg (70 ppm) after macrometastasis visible

Compound: N=c1c2c(-c3ccccc3)c(-c3ccccc3)n(Cc3ccccc3)c2ncn1[C@H]1CC[C@H](O)CC1 [metarrestin]
- Apoptotic index, cells undergoing apoptosis (PANC1, PC3M, and HeLa): less than 1%
- DNA damage response signature factors (PANC1, PC3M, and HeLa; 1 μM, 24 hours): neither phosphorylated yH2AX or p53BP1, nor phosphorylated p53
- Cell cycle pattern (DNA content, flow cytometry) (PANC1, PC3M, and HeLa; two different concentrations within 24 hours): did not show a significant alteration of cell cycle pattern
- Localization of CUGBP (Pol II transcription): without causing cytoplasmic relocation of CUGBP
- SC35 distribution pattern (Pol II transcription): not significantly changed
- Aggregation temperature of eEF1A (eEF1A): increase in the aggregation temperature of eEF1A
- half-life (in vivo; female, BALB/c, ip, 25 mg/kg): 4.6 to 5.5 h
- Bioavailability (in vivo): high bioavailability
- Extension of median overall survival over control group (NSG PANC1 mice; [1]): more than two-fold
- Organ replacement with tumors at necropsy (liver, lungs) (NSG PANC1 mice; [1]): preserved organs
- Primary tumor growth in the pancreas (NSG PANC1 mice; [1]): no significant difference
- Time after start of treatment without mortality (NSG PANC1 mice; infused chow 10 mg/kg (70 ppm) from 6 weeks after implantation (micrometastasis)): more than 90 days
